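Step 1: Grow cells in 96-well plates. Step 2: Expose to compound for 48 hours at 5 concentrations. Step 3: Interpolate endpoints linearly; if unreached, use highest concentration. At the GI50, growth is halved.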 The source made the active and inactive calls. No stated cut-off is given here; in the data, active = GI50 up to about 1.1 µM and inactive = higher.
How the values were obtained:
Assay in all cases: NCI-60 cell line screen, 48 h
UACC-257 = test system: UACC-257
NCI-H522 = test system: NCI-H522
SK-MEL-28 = test system: SK-MEL-28
A498 = test system: A498
HL-60 = test system: HL-60
SF-268 = test system: SF-268
IGROV-1 = test system: IGROV-1
PC-3 = test system: PC-3
K562 = test system: K562
M14 = test system: M14
MDA-MB-435 = test system: MDA-MB-435
HCT-116 = test system: HCT-116
OVCAR-3 = test system: OVCAR-3
DU-145 = test system: DU-145
CCRF-CEM = test system: CCRF-CEM
OVCAR-8 = test system: OVCAR-8
786-0 = test system: 786-0
NCI-H226 = test system: NCI-H226
SK-MEL-5 = test system: SK-MEL-5
OVCAR-5 = test system: OVCAR-5

Row | SMILES | GI50 (UACC-257) | GI50 (NCI-H522) | GI50 (SK-MEL-28) | GI50 (A498) | GI50 (HL-60) | GI50 (SF-268) | GI50 (IGROV-1) | GI50 (PC-3) | GI50 (K562) | GI50 (M14) | GI50 (MDA-MB-435) | GI50 (HCT-116) | GI50 (OVCAR-3) | GI50 (DU-145) | GI50 (CCRF-CEM) | GI50 (OVCAR-8) | GI50 (786-0) | GI50 (NCI-H226) | GI50 (SK-MEL-5) | GI50 (OVCAR-5)
1 | Oc1ccccc1C(c1cc2c(cc1O)OCO2)N1CCOCC1 (configuration not stated) | 19.2 µM (inactive) | 10.2 µM (inactive) | 20.7 µM (inactive) | 22.9 µM (inactive) | 2.24 µM (inactive) | 18.5 µM (inactive) | 19.4 µM (inactive) | 16.3 µM (inactive) | 5.25 µM (inactive) | 17.9 µM (inactive) | 18.2 µM (inactive) | 17.7 µM (inactive) | 17.5 µM (inactive) | 37.4 µM (inactive) | 2.14 µM (inactive) | 9.29 µM (inactive) | 4.89 µM (inactive) | 35.6 µM (inactive) | 17.3 µM (inactive) | 25 µM (inactive)
2 | CC1=CC2C3(C)C(C)(C(C)=CP3(=O)c3c(C(C)C)cc(C(C)C)cc3C(C)C)C1P2(=O)c1c(C(C)C)cc(C(C)C)cc1C(C)C (configuration not stated) | 1.7 µM (inactive) | 2.4 µM (inactive) | 2.58 µM (inactive) | 2.16 µM (inactive) | 1.09 µM (active) | 3.3 µM (inactive) | 1.98 µM (inactive) | 2.7 µM (inactive) | 1.91 µM (inactive) | 1.92 µM (inactive) | 1.85 µM (inactive) | 1.75 µM (inactive) | 1.75 µM (inactive) | 3.5 µM (inactive) | 2.04 µM (inactive) | 3.37 µM (inactive) | 2.12 µM (inactive) | 2.23 µM (inactive) | 1.48 µM (inactive) | 2.06 µM (inactive)
3 | O=C1C=CC(=O)c2ccc(=O)ccc21 | 17.1 µM (inactive) | 2.09 µM (inactive) | 21.4 µM (inactive) | 16.9 µM (inactive) | 2.1 µM (inactive) | 17.1 µM (inactive) | 18.8 µM (inactive) | 17.8 µM (inactive) | 2.4 µM (inactive) | 14.8 µM (inactive) | 21.5 µM (inactive) | 10.8 µM (inactive) | 7.85 µM (inactive) | 28.1 µM (inactive) | 0.802 µM (active) | 17.5 µM (inactive) | 17.5 µM (inactive) | 34.8 µM (inactive) | 19.7 µM (inactive) | 19.9 µM (inactive)
4 | COc1cc(C)c(/C=C2/N=C(c3ccccc3)OC2=O)c([N+](=O)[O-])c1OC | > 100 µM (inactive) | > 100 µM (inactive) | > 100 µM (inactive) | > 100 µM (inactive) | > 100 µM (inactive) | > 100 µM (inactive) | > 100 µM (inactive) | > 100 µM (inactive) | > 100 µM (inactive) | > 100 µM (inactive) | > 100 µM (inactive) | > 100 µM (inactive) | > 100 µM (inactive) | > 100 µM (inactive) | 73.6 µM (inactive) | > 100 µM (inactive) | > 100 µM (inactive) | > 100 µM (inactive) |  | > 100 µM (inactive)
5 | COc1cc(C2C(Cl)C(=O)N2NC(=O)c2ccc(NC(C)=O)cc2OC)ccc1O (configuration not stated) |  | 8.45 µM (inactive) | 28.7 µM (inactive) | 19.4 µM (inactive) | 20.3 µM (inactive) | 21.8 µM (inactive) | 17.5 µM (inactive) | 19.4 µM (inactive) | 18.1 µM (inactive) | 16.3 µM (inactive) | 28 µM (inactive) | 16.9 µM (inactive) | 21.4 µM (inactive) | 21.3 µM (inactive) | 2.64 µM (inactive) | 22.2 µM (inactive) | 15.1 µM (inactive) | 10.6 µM (inactive) | 15.2 µM (inactive) | 13.2 µM (inactive)
6 | O=c1cc(-c2ccccc2)oc2cc(Oc3nnnn3-c3ccccc3)ccc12 | 32.5 µM (inactive) | 36.1 µM (inactive) | 79.1 µM (inactive) | 28.3 µM (inactive) | 30.5 µM (inactive) | 15 µM (inactive) | 98.4 µM (inactive) | 39.4 µM (inactive) | 32.6 µM (inactive) | 36.5 µM (inactive) | 15.5 µM (inactive) | 34.6 µM (inactive) | 55.6 µM (inactive) | 32.5 µM (inactive) | 69.2 µM (inactive) | 34.8 µM (inactive) | 38.7 µM (inactive) | 9.42 µM (inactive) | 15.1 µM (inactive) | 
7 | COC(=O)/C=C\C(C#N)(C#N)/N=C/c1ccc(OC)cc1 | 4.83 µM (inactive) | 0.615 µM (active) | 2.7 µM (inactive) | 18.5 µM (inactive) | 1.45 µM (inactive) | 4.94 µM (inactive) | 15 µM (inactive) | 7.4 µM (inactive) | 3.41 µM (inactive) | 3.08 µM (inactive) | 2.33 µM (inactive) | 1.84 µM (inactive) | 2.72 µM (inactive) | 7.01 µM (inactive) | 0.162 µM (active) | 2.89 µM (inactive) | 1.99 µM (inactive) | 10.8 µM (inactive) | 17.8 µM (inactive) | 21.7 µM (inactive)
8 | CCNc1ncnc2c1nnn2CC | > 100 µM (inactive) | > 100 µM (inactive) | > 100 µM (inactive) | > 100 µM (inactive) | > 100 µM (inactive) |  | > 100 µM (inactive) | > 100 µM (inactive) | > 100 µM (inactive) | > 100 µM (inactive) | > 100 µM (inactive) | > 100 µM (inactive) | > 100 µM (inactive) | > 100 µM (inactive) | > 100 µM (inactive) | 97.5 µM (inactive) | > 100 µM (inactive) | > 100 µM (inactive) | > 100 µM (inactive) | 
9 | NC(=O)CC(N)C(N)=O (configuration not stated) | > 100 µM (inactive) | > 100 µM (inactive) | > 100 µM (inactive) | > 100 µM (inactive) | > 100 µM (inactive) |  | > 100 µM (inactive) | > 100 µM (inactive) | > 100 µM (inactive) | > 100 µM (inactive) | > 100 µM (inactive) | > 100 µM (inactive) | > 100 µM (inactive) | > 100 µM (inactive) | > 100 µM (inactive) | > 100 µM (inactive) | > 100 µM (inactive) | > 100 µM (inactive) | > 100 µM (inactive) | 
10 | COc1cc2c(cc1OC)C(CCN)=NCC2 | 17.9 µM (inactive) | 3.82 µM (inactive) | 18.4 µM (inactive) | 26.9 µM (inactive) | 0.839 µM (active) | 19.5 µM (inactive) | 22.6 µM (inactive) | 16 µM (inactive) | 11.2 µM (inactive) | 17.2 µM (inactive) | 16.5 µM (inactive) | 18.4 µM (inactive) | 18 µM (inactive) | 17.9 µM (inactive) | 2.19 µM (inactive) | 18.2 µM (inactive) | 5.08 µM (inactive) | > 46.1 µM (inactive) | 20 µM (inactive) | > 42.6 µM (inactive)
11 | COc1cc(/C=C/C(=O)N[C@@H]2C(=O)N3[C@@H]2SC(C)(C)[C@@H]3C(=O)O)ccc1O | > 100 µM (inactive) | > 100 µM (inactive) | > 100 µM (inactive) | > 100 µM (inactive) | > 100 µM (inactive) | > 100 µM (inactive) |  | > 100 µM (inactive) | > 100 µM (inactive) | > 100 µM (inactive) | > 100 µM (inactive) | > 100 µM (inactive) | > 100 µM (inactive) | > 100 µM (inactive) | > 100 µM (inactive) | > 100 µM (inactive) | > 100 µM (inactive) | > 100 µM (inactive) | > 100 µM (inactive) | > 100 µM (inactive)
